The values that follow come from paper PMC11547735, “Effect of Oral Administration of Collagen Peptide OG-5 on Advanced Atherosclerosis Development in ApoE^−/− Mice” (Nutrients, 2024).

Like-named read-outs stand apart in the source and are kept apart here. Square brackets hold non-standard residues; d marks the D form. Peptide text beside a SMILES is read from it. Hyp = O=C(O)[C@@H]1C[C@@H](O)CN1

Data set [1] deals with Caco-2 cell monolayers. The conditions noted are these: results reported for other peptides; cited from earlier work. An excerpt:
According to the previous study, a Papp value higher than 1.0 × 10^−5 cm ...

A short description of data set [2]: Body weight and organ index of ApoE−/− mice after oral administration. The following applies: n = 8. The data set is classed as in vivo, mouse. As for the experimental part: The animal study was performed in compliance with the requirements of the Guide for the Care and Use of Laboratory Animals (NIH publication No.86-23, revised 1996) and was approved by the Welfare Committee of Pony Testing International Group Co., Ltd., Beijing, China (PONY-2021-FL-12, approval date: 5 December 2021). The 7-week-old male ApoE^−/− mice and C57BL/6J mice were purchased from Beijing Vital River Laboratory Animal Technology Co., Ltd. (Beijing, China). The mice were acclimatized for a period of one week in a pathogen-free environment, maintained under a controlled 12-h light/dark cycle at a constant temperature of 21 °C. During this period, they had unrestricted access to a standard rodent chow diet and tap water. Following acclimatization, the mice were assigned to experimental groups randomly, with each group consisting of eight mice.
(§1) The establishment of the AS model in ApoE^−/− mice was divided into two stages. At I stage, 8-week-old male ApoE^−/− mice were fed a Western-type diet (42% fat; 21% anhydrous milk fat, 0.15% cholesterol) for 16 weeks to establish an early AS model. At II stage, a high-fat and high-cholesterol diet (containing 5% cholesterol, 0.5% sodium cholate, 20% fat) was replaced at the 17th week to accelerate the progress of AS till the 24th week. The C57BL6/J mice were utilized as the normal control group and maintained on a standard maintenance diet (20% protein; 5% fat; 50% carbohydrate; 5% cellulose; 10% vitamins and minerals). The mice were subsequently randomized into 4 groups, each consisting of 8 animals: (i) M Group (0.9% saline for ApoE^−/− mice), (ii) Sustainable OG-5 intervention group (50 mg/kg bw) during two stages, (iii) OG-5 treatment group (150 mg/kg bw), and (iv) aspirin group (25 mg/kg bw) at II stage. The OG-5 and aspirin were orally administered to mice every other day. Animals that were not subjected to any treatment and maintained on a normal diet served as the control group (N group). The body weight was monitored every week.
(§2) After 24-week treatment, the mice were fasted overnight and sacrificed. Blood was collected to stand at room temperature for 2 h, and the serum was separated by centrifugation for further analysis.

Data set [3] has as its system ApoE^−/− mice. The experiment in a line: Serum lipid levels in ApoE−/− mice (advanced atherosclerosis model). The data set is classed as in vivo, mouse. The following applies: aspirin 25 mg/kg bw oral every other day at stage II, n = 8.
Text: as §1, §2

The conditions of data set [4]: cited from earlier work. An excerpt:
The application of peptides is usually limited for the short half-life and is commonly due to fast renal clearance as well as enzymatic degradation, including aminopeptidases, carboxypeptidases, dipeptidases and endopeptidases occurring during systemic circulation.

Data set [5] can be described thus: In vivo absorption experiment on rats. The following applies: rat. On the procedure: The peptide absorption in vivo was conducted as previously described. The rats were orally administered with peptide OG-5 (1.0 g/kg bw). Blood samples were obtained via a minimal incision at the tail tip at 0, 0.5, 1, and 2 h after oral administration. The collected blood was transferred into 5 kDa ultrafiltration centrifugal tube, and the filtrate was collected for HPLC analysis. The elution program was conducted as follows: 0–5 min, 10–15% buffer B (acetonitrile); 5–20 min, 15–25% buffer B; 20–25 min, 25–100% buffer B.

The subject of data set [6] is Caco-2 cell monolayers. The experiment in a line: Transport across Caco-2 cell monolayers. The data set is classed as in vitro ADME, human. The following applies: Caco-2 monolayers 21 days, TEER > 800 Ω·cm^2, apical to basolateral, HBSS, pre-incubation 1 h 37 °C, incubation 2 h, HPLC. As for the experimental part:
The Caco-2 cell culture and the establishment of the transepithelial transport model were according to the previous study. The Caco-2 cells (10–20 passages) were grown in DMEM supplemented with 10% FBS and 1% penicillin streptomycin at 37 °C.
For the establishment of the transepithelial transport model, Caco-2 cells were seeded onto permeable polyester inserts (12 mm diameter, with a growth surface area of 1.12 cm^2 and a pore size of 0.4 μm, sourced from Costar, Corning, NY, USA) placed in 12-well transwell plates at a density of 1 × 10^5 cells per insert. Over a period of 21 days, the cell culture medium was replaced cautiously every two days to facilitate the differentiation of Caco-2 cells into fully confluent monolayers. […] The Caco-2 cell monolayers were delicately rinsed twice with HBSS and subsequently pre-incubated at 37 °C for 1 h. […]
Transport percentage (%) is calculated by the following equation: (1) Transport percentage %=transported amount of peptide in basolateral side/intial amount of peptide in apical side×100
The apparent permeability coefficient (Papp, cm/s) was calculated as follows:(2) Papp=dQ/dt×1/A×1/C0 where dQ/dt is the permeability rate (mmol/s); A is the area of the membrane (cm^2); C0 is the initial peptide concentration in the donor chamber (mM).
(In general: Caco-2 monolayers are a common model of the intestinal barrier.)

Data set [7] has as its system ApoE^−/− mice. The experiment in a line: Bleeding time after long-term oral administration (Figure S1). The conditions noted are these: n = 8. The data set is classed as in vivo, mouse. The text has this:
The following supporting information can be downloaded at: https://www.mdpi.com/article/10.3390/nu16213752/s1, Figure S1: Bleeding time after oral administration of peptide OG-5 in ApoE^−/− mice (n = 8).

Data set [8] in a line: Peptide stability in plasma. The data set is classed as in vitro ADME. The following applies: rat plasma (heparinized), 0.5 mM, 37 °C, 8 h incubation, 3 kDa ultrafiltration, HPLC-UV peak area. On the procedure:
The assessment of peptide stability in plasma was conducted with modifications to a previously described method. Briefly, blood samples were collected in heparinized tubes and immediately centrifuged to separate the plasma supernatant. Subsequently, OG-5 was added to achieve a final concentration of 0.5 mM, and the mixture was incubated at 37 °C. At specified time points (0, 0.5, 1.0, 2.0, 4.0, and 8.0 h), the mixture was centrifuged using a 3 kDa ultrafiltration centrifugal tube to separate the filtrate. The filtrate was then analyzed using a Shimadzu LC-15 HPLC system, equipped with an SPD-15 ultraviolet detector (Kyoto, Japan). The HPLC analysis conditions included an injection volume of 10 μL, a flow rate of 1 mL/min, and a gradient elution program: 0–25 min, 0–25% acetonitrile (buffer B); 25–30 min, 25–35% buffer B; 30–35 min, 35–100% buffer B. The quantity of peptide OG-5 in the plasma was determined based on its peak area.

Setting [9] is: aspirin 25 mg/kg bw oral every other day at stage II.
Where [10] appears, read: OG-5 50 mg/kg bw oral every other day, stages I and II.
Setting [11] is: OG-5 150 mg/kg bw oral every other day at stage II.
[12] abbreviates: long-term oral 150 mg/kg bw, bleeding time.

With TNGIIR, the Papp (commonly a coefficient for how fast a substance crosses the barrier) in data set [1] was 4.9 ×10⁻⁶ cm/s.
Turning to `CC(=O)Oc1ccccc1C(=O)O` [Aspirin, reference compound], in data set [2] (setting [9]), the “Final Body weight” value is 28.8 ± 1.7 g, the “Initial Body weight” value worked out at 27.7 ± 2.8 g, the Spleen index came out at 4.99 ± 2.64 mg/g bw and the Thymus index came out at 0.83 ± 0.12 mg/g bw. For the same compound, in data set [3], the HDL-C turned out to be 0.64 ± 0.37 mM, the LDL-C is reported as 9.55 ± 1.89 mM, the TC was found to be 41.09 ± 6.05 mM and the TG was determined as 3.43 ± 0.96 mM.
In the case of “RVPSL [literature antihypertensive peptide, ovotransferrin 328–332, compared for Caco-2 Papp]”, the Papp in data set [1] was 7 ×10⁻⁶ cm/s.
For the compound PGEOG, the half-life in plasma in data set [4] was 4.3 h.
As to `O=C(O)CC[C@H](NC(=O)CNC(=O)[C@@H]1C[C@@H](O)CN1)C(=O)N[C@@H](Cc1ccccc1)C(=O)NCC(=O)O` [OG-5, OGEFG] (H-[Hyp]GEFG-OH), the Tmax (usually the time at which the peak concentration occurs) in data set [5] (po, 1 g/kg) is 2 h. Also, in data set [5] (rats, oral 1.0 g/kg bw, tail blood at 0, 0.5, 1, 2 h, 5 kDa ultrafiltration, HPLC, read-out: peak plasma concentration), the Cmax turned out to be 77.8 µM. For the same compound, the “Initial Body weight” value in data set [2] (OG-5 50 mg/kg bw oral every other day, stages I and II (24 weeks), mean ± standard) is 24.5 ± 1.0 g. The “Final Body weight” value in data set [2] (OG-5 50 mg/kg bw oral every other day, stages I and II (24 weeks)) is on record as 27.7 ± 2.2 g. Further, in data set [2] (setting [10]), the Spleen index is 4.16 ± 0.99 mg/g bw and the Thymus index amounted to 0.69 ± 0.15 mg/g bw. Further, the “Initial Body weight” value in data set [2] (OG-5 150 mg/kg bw oral every other day at stage II (weeks 17-24)) was 27.8 ± 2.5 g. In data set [2] (setting [11]), the “Final Body weight” value was 28.9 ± 2.0 g, the Spleen index was found to be 4.80 ± 2.13 mg/g bw and the Thymus index is recorded as 0.79 ± 0.13 mg/g bw. In data set [6], this compound displayed a Papp of 18 ×10⁻⁶ cm/s. Further, in data set [6] (spread printed ± 0.57), the Transport percentage is listed as 14.40%. Also, in data set [7] (setting [12]), the “bleeding risk compared to aspirin” value is listed as “lower bleeding risk” and the “bleeding risk compared with M model” value is “a little bleeding risk”. Also, the bleeding risk result in data set [7] (low-dose sustainable intervention 50 mg/kg bw from stage I) was “without bleeding risks”. The “peptide remaining intact in plasma” value in data set [8] is given as greater than 70%. Also, in data set [8] (read-out: peptide remaining intact in plasma), the amount remaining (commonly the share of the starting amount still present when the sample was taken) at 8 h is 78.2%.
